From patent US8501446B2 (Vertex Pharmaceuticals Incorporated, priority 2004, dated 2013)

Columns and labels:
[1] = target: T1, JAK3 (Homo sapiens, UniProt P52333); test: JAK3 inhibition assay (standard radioactive enzyme assay); type: biochemical; details: average Ki if more than one value determined
T1 sequence (P52333 1-1124): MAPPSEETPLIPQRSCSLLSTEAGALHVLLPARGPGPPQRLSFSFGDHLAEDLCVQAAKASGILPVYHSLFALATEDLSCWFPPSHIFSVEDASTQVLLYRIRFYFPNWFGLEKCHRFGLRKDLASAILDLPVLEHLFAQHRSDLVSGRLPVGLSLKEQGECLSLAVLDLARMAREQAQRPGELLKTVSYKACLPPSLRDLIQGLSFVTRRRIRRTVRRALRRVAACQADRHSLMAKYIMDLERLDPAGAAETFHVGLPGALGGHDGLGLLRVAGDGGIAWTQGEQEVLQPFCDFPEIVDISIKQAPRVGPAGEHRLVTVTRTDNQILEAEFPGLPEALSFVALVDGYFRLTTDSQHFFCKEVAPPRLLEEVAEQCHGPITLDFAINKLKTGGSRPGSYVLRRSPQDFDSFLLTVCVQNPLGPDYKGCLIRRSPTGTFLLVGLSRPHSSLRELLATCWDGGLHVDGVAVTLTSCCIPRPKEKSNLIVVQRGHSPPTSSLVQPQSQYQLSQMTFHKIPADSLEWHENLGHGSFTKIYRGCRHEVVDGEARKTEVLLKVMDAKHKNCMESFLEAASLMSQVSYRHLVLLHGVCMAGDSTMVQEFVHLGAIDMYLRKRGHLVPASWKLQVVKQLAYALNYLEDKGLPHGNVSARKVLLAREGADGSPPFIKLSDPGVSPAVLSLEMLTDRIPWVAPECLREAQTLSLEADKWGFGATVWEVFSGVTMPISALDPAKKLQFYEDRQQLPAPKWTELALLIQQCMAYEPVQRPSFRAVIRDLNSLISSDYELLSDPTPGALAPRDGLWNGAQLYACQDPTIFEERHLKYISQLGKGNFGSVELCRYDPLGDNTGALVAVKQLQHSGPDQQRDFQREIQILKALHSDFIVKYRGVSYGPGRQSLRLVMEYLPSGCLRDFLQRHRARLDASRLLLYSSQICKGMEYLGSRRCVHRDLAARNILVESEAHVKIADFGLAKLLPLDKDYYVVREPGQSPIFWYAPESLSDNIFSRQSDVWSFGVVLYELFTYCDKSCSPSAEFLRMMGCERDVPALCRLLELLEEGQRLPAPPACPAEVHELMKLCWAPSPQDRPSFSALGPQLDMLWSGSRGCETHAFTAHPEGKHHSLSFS

[2] = target: T2, ROCK I (AA 6-553) (Homo sapiens, UniProt Q13464); test: ROCK inhibition assay, standard coupled enzyme system ("Enzyme"); type: biochemical; details: enzyme-linked assay
T2 construct: ROCK I (AA 6-553)
In short: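 ROCK I (AA 6-553) at 45 nM and 30 °C with 45 μM ATP and 200 μM peptide, in 100 mM HEPES pH 7.5, 10 mM MgCl2, 25 mM NaCl, 2 mM DTT, 1.5% DMSO. ADP output read by a PK/LDH coupled system: 2.5 mM PEP, 350 μM NADH, 30 μg/ml PK, 10 μg/ml LDH.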

T2 sequence (Q13464 6-553, species assumed): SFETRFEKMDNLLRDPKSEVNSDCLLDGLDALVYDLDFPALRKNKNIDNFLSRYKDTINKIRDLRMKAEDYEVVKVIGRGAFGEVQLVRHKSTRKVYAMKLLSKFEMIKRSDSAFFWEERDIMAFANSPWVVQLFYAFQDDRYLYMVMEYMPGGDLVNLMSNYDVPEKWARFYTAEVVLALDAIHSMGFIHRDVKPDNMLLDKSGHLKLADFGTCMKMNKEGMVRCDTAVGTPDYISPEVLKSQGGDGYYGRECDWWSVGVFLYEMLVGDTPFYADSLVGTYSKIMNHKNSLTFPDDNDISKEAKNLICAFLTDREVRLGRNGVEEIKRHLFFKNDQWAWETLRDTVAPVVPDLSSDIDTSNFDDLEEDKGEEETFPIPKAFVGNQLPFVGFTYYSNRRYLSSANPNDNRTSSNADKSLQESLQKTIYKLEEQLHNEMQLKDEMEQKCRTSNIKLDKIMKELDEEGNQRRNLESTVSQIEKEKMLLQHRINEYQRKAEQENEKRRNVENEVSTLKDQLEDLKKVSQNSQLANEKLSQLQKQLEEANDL

Ki [1] | Ki [2] | SMILES
< 500 nM | < 500 nM | CCOC(=O)N1CCCN(c2nccc(-c3c[nH]c4ncc(OC)cc34)n2)CC1 [Compound 33]
< 500 nM | 500 to 5000 nM | C[C@H](Nc1cccc(-c2c[nH]c3ncc(Cl)cc23)n1)c1ccc(F)cc1 [Compound 395]

Second part, the compound before the results:

SMILES | Ki [1] | Ki [2]
C[C@H](Nc1nc(-c2c[nH]c3ncc(Cl)cc23)ncc1F)C(=O)NCC(F)(F)F [Compound 369] | < 500 nM | 500 to 5000 nM
COc1cnc2[nH]cc(-c3cccc(N4C[C@@H](C)N(C(C)=O)[C@@H](C)C4)n3)c2c1 [Compound 18] | < 500 nM | 500 to 5000 nM
COC(=O)c1cnc2[nH]cc(-c3cccc(N4C[C@@H](C)N(C(C)=O)[C@@H](C)C4)n3)c2c1 [Compound 35] | < 500 nM | < 500 nM
CC(=O)N1[C@H](C)CN(c2cccc(-c3c[nH]c4ncc(Cl)cc34)n2)C[C@@H]1C [Compound 19] | < 500 nM | < 500 nM
